Legend:
[1] = system: castrated male rats (levator ani, seminal vesicules, prostate); assay: Anabolisant-androgenic activity, Hershberger technique slightly modified (castrated rats, oral); type: in vivo, rat; settings: for Levator ani weight / Prostate weight / Seminal vesicules weight: oral, 10 days
Method: This test was effected using the technique of Hershberger [Proc. Soc. Exp. Biol. Med., Vol. 83 (1953), p. 175] slightly modified and groups of 5 male rats 19 to 21 days old were castrated and then were treated daily for 10 days by oral administration of the test product in a solution containing 0.5 ml of olive oil and 0.5 ml of water containing 0.25% of carboxymethylcellulose. The animals were killed 24 hours after the last treatment and the prostate and seminal vesicules were removed and fixed for 24 hours in a solution of 10% formol in physiological serum. They were then dissected and weighed and the levator ani was removed and weighed in a fresh state. The increase in the weight of the genital organs indicate the anabolisant-androgenic activity of 17β-n-amyloxy-Δ^4,9,11 -estratriene-3-one and the results are reported in Table I and compared to the results of other trienic steroids.

hepatic cells = assay: Hepatonocivity study (rabbit, oral, 4 consecutive days); type: in vivo
Method: 17β-n-amyloxy-Δ^4,9,11 -estratriene-3-one was orally administered for 4 consecutive days to a rabbit at a dose of 10 mg/kg and the animal was killed on the 5th day. […] (BSP).

[2] = 10 mg/kg orally, 4 consecutive days

C=C(C)CO[C@H]1CC[C@H]2[C@@H]3CCC4=CC(=O)CCC4=C3C=C[C@]12C [17β-(2'-methyl)allyloxy-Δ^4,9,11 estratriene 3-one] gave a Levator ani weight ([1]; daily dose 20 μg/rat) of 29.0 mg, a Prostate weight ([1]; daily dose 20 μg/rat) of 34.1 mg and a Seminal vesicules weight ([1]; daily dose 20 μg/rat) of 17.0 mg. The Levator ani weight ([1]; daily dose 100 μg/rat) was 23.5 mg, the Prostate weight ([1]; daily dose 100 μg/rat) was 39.0 mg and the Seminal vesicules weight ([1]; daily dose 100 μg/rat) was 16.7 mg. It also gave a Levator ani weight ([1]; daily dose 500 μg/rat) of 37.5 mg, a Prostate weight ([1]; daily dose 500 μg/rat) of 66.2 mg and a Seminal vesicules weight ([1]; daily dose 500 μg/rat) of 52.3 mg.
CCCO[C@H]1CC[C@H]2[C@@H]3CCC4=CC(=O)CCC4=C3C=C[C@]12C [17β-n-propyloxy-Δ^4,9,11-estratriene 3-one] showed a Levator ani weight ([1]; daily dose 100 μg/rat) of 25.3 mg, a Prostate weight ([1]; daily dose 100 μg/rat) of 33.5 mg and a Seminal vesicules weight ([1]; daily dose 100 μg/rat) of 14.9 mg. It also gave a Levator ani weight ([1]; daily dose 1000 μg/rat) of 38.7 mg, a Prostate weight ([1]; daily dose 1000 μg/rat) of 74.4 mg and a Seminal vesicules weight ([1]; daily dose 1000 μg/rat) of 66.8 mg.
CC(C)=CCO[C@H]1CC[C@H]2[C@@H]3CCC4=CC(=O)CCC4=C3C=C[C@]12C [17β-(3'-methyl)but-2'-enyloxy Δ^4,9,11-estratriene-3-one] showed a Levator ani weight ([1]; daily dose 10 μg/rat) of 28.7 mg, a Prostate weight ([1]; daily dose 10 μg/rat) of 12.8 mg and a Seminal vesicules weight ([1]; daily dose 10 μg/rat) of 8.2 mg. It also gave a Levator ani weight ([1]; daily dose 100 μg/rat) of 49.2 mg, a Prostate weight ([1]; daily dose 100 μg/rat) of 39.0 mg and a Seminal vesicules weight ([1]; daily dose 100 μg/rat) of 36.7 mg.
In the case of C[C@]12C=CC3=C4CCC(=O)C=C4CC[C@H]3[C@@H]1CC[C@@H]2OCC1CC1 [17β-(cyclopropyl)-methoxy-Δ^4,9,11-estratriene-3-one], the Levator ani weight ([1]; daily dose 10 μg/rat) is reported as 20.7 mg, the Prostate weight ([1]; daily dose 10 μg/rat) is reported as 18.4 mg and the Seminal vesicules weight ([1]; daily dose 10 μg/rat) is reported as 9.9 mg. It also gave a Levator ani weight ([1]; daily dose 100 μg/rat) of 33.3 mg, a Prostate weight ([1]; daily dose 100 μg/rat) of 41.7 mg and a Seminal vesicules weight ([1]; daily dose 100 μg/rat) of 26.4 mg. It also gave a Levator ani weight ([1]; daily dose 1000 μg/rat) of 49.2 mg, a Prostate weight ([1]; daily dose 1000 μg/rat) of 88.7 mg and a Seminal vesicules weight ([1]; daily dose 1000 μg/rat) of 97.1 mg.
Compound CC(C)CO[C@H]1CC[C@H]2[C@@H]3CCC4=CC(=O)CCC4=C3C=C[C@]12C [17β-isobutyloxy-Δ^4,9,11-estratriene-3-one] has a Levator ani weight ([1]; daily dose 10 μg/rat) of 24.6 mg, a Prostate weight ([1]; daily dose 10 μg/rat) of 13.5 mg and a Seminal vesicules weight ([1]; daily dose 10 μg/rat) of 9.2 mg. It also gave a Levator ani weight ([1]; daily dose 100 μg/rat) of 41.9 mg, a Prostate weight ([1]; daily dose 100 μg/rat) of 46.4 mg and a Seminal vesicules weight ([1]; daily dose 100 μg/rat) of 28.7 mg. It also gave a Levator ani weight ([1]; daily dose 1000 μg/rat) of 44.0 mg, a Prostate weight ([1]; daily dose 1000 μg/rat) of 104.8 mg and a Seminal vesicules weight ([1]; daily dose 1000 μg/rat) of 116.0 mg.
With CCCCCO[C@H]1CC[C@H]2[C@@H]3CCC4=CC(=O)CCC4=C3C=C[C@]12C [17β-n-amyloxy-Δ^4,9,11-estratriene-3-one] the “anabolisant-androgenic activity compared to other Δ^4,9,11 -estratrienes” value ([1]; administered orally, rats) was “clearly much superior”, the Levator ani weight ([1]; daily dose 10 μg/rat) was 28.4 mg and the Prostate weight ([1]; daily dose 10 μg/rat) was 27.7 mg. For the same compound, the Seminal vesicules weight ([1]; daily dose 10 μg/rat) was 13.1 mg, the Levator ani weight ([1]; daily dose 30 μg/rat) was 47.1 mg and the Prostate weight ([1]; daily dose 30 μg/rat) was 44.7 mg. For the same compound, the Seminal vesicules weight ([1]; daily dose 30 μg/rat) was 23.5 mg, the Levator ani weight ([1]; daily dose 90 μg/rat) was 53.1 mg and the Prostate weight ([1]; daily dose 90 μg/rat) was 79.0 mg. For the same compound, the Seminal vesicules weight ([1]; daily dose 90 μg/rat) was 64.0 mg, the “tolerance by the hepatic cells” value (hepatic cells; 5 mg/kg) was “well tolerated” and the “rate of oxalacetic transaminase (SGOT)” value (hepatic cells; [2]) was “increase”. For the same compound, the “rate of retention of bromosulfonephtalein (BSP)” value (hepatic cells; [2]) was “without having caused a change”.
